In patent publication US20250361230A1, “LATS Inhibitors and Uses Thereof” (The USA, as Represented by the Secretary, Dept. of Heath …, priority 2022, published 2025) one finds IC50 data, which are given here for 9 compounds.

The target of assay [1] is T1, LATS1 (Homo sapiens, UniProt O95835).
T1 sequence (O95835 1-1130): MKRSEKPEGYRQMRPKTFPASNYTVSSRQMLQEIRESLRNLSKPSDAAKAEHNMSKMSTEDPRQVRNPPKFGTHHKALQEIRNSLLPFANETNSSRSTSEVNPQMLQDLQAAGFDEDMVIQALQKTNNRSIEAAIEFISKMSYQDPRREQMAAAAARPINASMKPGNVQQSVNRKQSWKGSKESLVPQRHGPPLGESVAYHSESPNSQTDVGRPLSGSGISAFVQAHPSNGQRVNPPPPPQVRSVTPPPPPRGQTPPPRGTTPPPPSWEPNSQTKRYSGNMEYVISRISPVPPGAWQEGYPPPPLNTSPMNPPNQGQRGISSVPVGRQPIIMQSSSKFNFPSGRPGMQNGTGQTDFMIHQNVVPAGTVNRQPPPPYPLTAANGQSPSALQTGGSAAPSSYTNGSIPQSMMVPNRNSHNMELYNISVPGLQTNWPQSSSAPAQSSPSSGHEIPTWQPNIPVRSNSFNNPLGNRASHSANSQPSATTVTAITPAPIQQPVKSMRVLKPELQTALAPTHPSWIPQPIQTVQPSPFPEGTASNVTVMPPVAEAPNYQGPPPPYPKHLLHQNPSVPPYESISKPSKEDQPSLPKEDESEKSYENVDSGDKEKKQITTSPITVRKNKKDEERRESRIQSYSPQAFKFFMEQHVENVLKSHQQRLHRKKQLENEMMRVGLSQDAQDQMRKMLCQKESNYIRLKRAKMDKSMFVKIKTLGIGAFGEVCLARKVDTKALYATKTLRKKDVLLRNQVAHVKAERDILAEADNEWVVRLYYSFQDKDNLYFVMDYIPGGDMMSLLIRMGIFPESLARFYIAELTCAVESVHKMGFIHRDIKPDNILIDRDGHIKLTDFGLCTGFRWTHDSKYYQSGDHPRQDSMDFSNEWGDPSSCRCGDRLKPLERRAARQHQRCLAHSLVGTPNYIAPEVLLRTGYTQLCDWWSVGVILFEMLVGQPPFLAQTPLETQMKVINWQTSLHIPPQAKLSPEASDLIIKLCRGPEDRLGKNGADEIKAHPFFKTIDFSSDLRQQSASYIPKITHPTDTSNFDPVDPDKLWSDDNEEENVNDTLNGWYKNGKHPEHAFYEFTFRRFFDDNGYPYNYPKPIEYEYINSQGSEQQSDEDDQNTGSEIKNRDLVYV
Briefly: RBC HotSpot kinase assay (33P-ATP, P81 filter-binding), LATS1. It is filed as biochemical. The note with it: biochemical kinase inhibition; read-out: LATS1 IC50. The method, boiled down: (§1)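 IC50 in nM was derived from 10-point, single-replicate titrations. Read-out was radiometric P81 filter binding following a 2 h room-temperature reaction with 33P-ATP, after 20 min compound preincubation.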

Assay [2] deals with T2, LATS2 (Homo sapiens, UniProt Q9NRM7).
T2 sequence (Q9NRM7 1-1088): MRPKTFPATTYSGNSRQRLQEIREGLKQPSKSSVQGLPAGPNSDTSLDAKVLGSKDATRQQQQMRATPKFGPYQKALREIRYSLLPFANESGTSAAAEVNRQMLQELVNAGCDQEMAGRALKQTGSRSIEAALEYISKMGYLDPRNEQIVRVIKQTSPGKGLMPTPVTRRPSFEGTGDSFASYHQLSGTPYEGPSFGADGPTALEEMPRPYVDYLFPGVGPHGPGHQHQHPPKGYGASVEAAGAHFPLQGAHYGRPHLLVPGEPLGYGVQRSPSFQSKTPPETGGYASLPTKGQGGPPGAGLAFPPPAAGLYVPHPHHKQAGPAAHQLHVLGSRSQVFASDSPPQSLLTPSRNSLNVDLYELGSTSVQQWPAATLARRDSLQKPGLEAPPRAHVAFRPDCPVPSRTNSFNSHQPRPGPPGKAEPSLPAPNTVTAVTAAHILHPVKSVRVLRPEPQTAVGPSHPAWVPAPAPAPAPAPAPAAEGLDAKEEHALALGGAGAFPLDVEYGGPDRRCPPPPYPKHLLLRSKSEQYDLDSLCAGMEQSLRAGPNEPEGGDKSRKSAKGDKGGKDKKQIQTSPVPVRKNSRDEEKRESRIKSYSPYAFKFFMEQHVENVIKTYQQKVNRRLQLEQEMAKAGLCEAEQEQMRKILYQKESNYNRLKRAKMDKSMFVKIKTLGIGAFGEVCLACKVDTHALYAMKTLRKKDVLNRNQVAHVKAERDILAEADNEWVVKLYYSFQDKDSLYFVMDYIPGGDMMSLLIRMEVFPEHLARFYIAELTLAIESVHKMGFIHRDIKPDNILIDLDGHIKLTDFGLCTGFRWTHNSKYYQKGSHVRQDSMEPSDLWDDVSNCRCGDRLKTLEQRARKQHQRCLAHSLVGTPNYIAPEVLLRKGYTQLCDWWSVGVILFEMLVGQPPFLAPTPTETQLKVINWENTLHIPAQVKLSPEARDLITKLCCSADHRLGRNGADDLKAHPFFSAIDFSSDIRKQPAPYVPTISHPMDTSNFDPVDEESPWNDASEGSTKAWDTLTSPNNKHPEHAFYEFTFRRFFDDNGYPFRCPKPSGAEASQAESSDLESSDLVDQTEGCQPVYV
Description: RBC HotSpot kinase assay (33P-ATP, P81 filter-binding), LATS2. The note with it: biochemical kinase inhibition; read-out: LATS2 IC50. It is filed as biochemical. The method, boiled down:
as §1

The structures appear in SMILES notation. pIC50: −log10 of the molar value.

On to `Cc1cc(-c2ccnc3[nH]cc(C#N)c23)cc(F)c1[C@@]1(O)[C@H](C)CN(C(=O)[C@H](N)CO)C[C@@H]1C` [Compound 2007, 4-(4-((3S,4S,5R)-1-(D-seryl)-4-hydroxy-3,5-dimethylpiperidin-4-yl)-3-fluoro-5-methylphenyl)-1H-pyrrolo[2,3-b]pyridine-3-carbonitrile], for which the negative-log IC50 (pIC50) was 8.07 in assay [1] and 8.28 in assay [2].

For `Cc1cc(-c2ccnc3[nH]cc(C#N)c23)cc(F)c1[C@@]1(O)[C@H](C)CN(C(=O)[C@](C)(N)CO)C[C@@H]1C` [Compound 2008, 4-(4-((3S,4s,5R)-1-(2-amino-3-hydroxy-2-methylpropanoyl)-4-hydroxy-3,5-dimethylpiperidin-4-yl)-3-fluoro-5-methylphenyl)-1H-pyrrolo[2,3-b]pyridine-3-carbonitrile], the negative-log IC50 (pIC50) in assay [1] is 8.28; in assay [2] it was 8.26.

In the case of `Cc1cc(-c2ccnc3[nH]cc(C#N)c23)cc(F)c1[C@@]1(O)[C@H](C)CN(C(=O)[C@H](C)N)C[C@@H]1C` [Compound 2011, 4-(4-((3S,4R,5R)-1-(L-alanyl)-4-hydroxy-3,5-dimethylpiperidin-4-yl)-3-fluoro-5-methylphenyl)-1H-pyrrolo[2,3-b]pyridine-3-carbonitrile], the results for the pIC50 in assay [1] and in assay [2] were 7.60 and 7.80, respectively.

Regarding `CNCC(=O)N1C[C@@H](C)[C@](O)(c2c(C)cc(-c3ccnc4[nH]cc(C#N)c34)cc2F)[C@@H](C)C1` [Compound 2012, 4-(3-fluoro-4-((3S,4s,5R)-4-hydroxy-3,5-dimethyl-1-(methylglycyl)piperidin-4-yl)-5-methylphenyl)-1H-pyrrolo[2,3-b]pyridine-3-carbonitrile], the pIC50 in assay [1] is 8.30; in assay [2], 8.54.

For the compound `Cc1cc(-c2ccnc3[nH]cc(C#N)c23)cc(F)c1[C@@]1(O)[C@H](C)CN(C(=O)CNCC(F)(F)F)C[C@@H]1C` [Compound 2014, 4-(3-fluoro-4-((3S,4s,5R)-4-hydroxy-3,5-dimethyl-1-((2,2,2-trifluoroethyl)glycyl)piperidin-4-yl)-5-methylphenyl)-1H-pyrrolo[2,3-b]pyridine-3-carbonitrile], the results for the pIC50 in assay [1] and in assay [2] were 8.15 and 8.22, respectively.

In the case of `Cc1cc(-c2ccnc3[nH]cc(C#N)c23)cc(F)c1[C@@]1(O)[C@H](C)CN(C(=O)[C@@H](C)N)C[C@@H]1C` [Compound 2015, 4-(4-((3S,4S,5R)-1-(D-alanyl)-4-hydroxy-3,5-dimethylpiperidin-4-yl)-3-fluoro-5-methylphenyl)-1H-pyrrolo[2,3-b]pyridine-3-carbonitrile], the pIC50 is 8.40 in assay [1] and 8.70 in assay [2].

For the compound `Cc1cc(-c2ccnc3[nH]cc(C#N)c23)cc(F)c1[C@@]1(O)[C@H](C)CN(C(=O)C(N)C(F)(F)F)C[C@@H]1C` (stereo partly drawn) [Compound 2017, 4-(4-((3S,4s,5R)-1-(2-amino-3,3,3-trifluoropropanoyl)-4-hydroxy-3,5-dimethylpiperidin-4-yl)-3-fluoro-5-methylphenyl)-1H-pyrrolo[2,3-b]pyridine-3-carbonitrile], the negative-log IC50 (pIC50) in assay [1] was 8.09; in assay [2], 8.16.

Consider `Cc1cc(-c2ccnc3[nH]cc(C#N)c23)cc(F)c1[C@@]1(O)[C@H](C)CN(C(=O)[C@H](CO)N(C)C)C[C@@H]1C` [Compound 2023, 4-(4-((3S,4R,5R)-1-(dimethyl-L-seryl)-4-hydroxy-3,5-dimethylpiperidin-4-yl)-3-fluoro-5-methylphenyl)-1H-pyrrolo[2,3-b]pyridine-3-carbonitrile], for which the pIC50 in assay [1] is 8.36; in assay [2], 8.54.

Regarding `Cc1cc(-c2ccnc3[nH]cc(C#N)c23)cc(F)c1[C@@]1(O)[C@H](C)CNC[C@@H]1C` [Compound 2024, 4-(3-fluoro-4-((3S,4s,5R)-4-hydroxy-3,5-dimethylpiperidin-4-yl)-5-methylphenyl)-1H-pyrrolo[2,3-b]pyridine-3-carbonitrile], the figures for the pIC50 in assay [1] and in assay [2] were 8.18 and 8.38, respectively.
